Source: patent publication US20210267983A1, “COMBINATIONS OF PPAR AGONISTS AND P38 KINASE INHIBITORS FOR PREVENTING OR TREATING FIBROTIC DISEASES” (KINARUS AG, priority 2018, published 2021)

Experiments:
[1] = cited from earlier work; for reduction of the rate of decline in lung function: patients with IPF; for adverse events / side effects: treatment of IPF
[2] = system: bleomycin-induced pulmonary fibrosis; test: 21-day model of bleomycin-induced pulmonary fibrosis in mice; type: in vivo; conditions: day 21, oral gavage QD, 25 mg/kg pioglitazone, 100 mg/kg pamapimod, alone or in combination, p<0.05, t test; for lung weights normalized to body weights: vs. group 2 (bleomycin + vehicle); for fibrosis, group mean fibrotic index (modified Ashcroft score): vs. group 2 (fibrotic index 4.8)
Protocol: Male C57BL/6 mice, six to seven weeks of age, were used for this study. Animals were weighed one day prior to study initiation and 60 animals were randomized into 6 groups (N=10/group) such that mean body weights were similar for the different groups. Food and water were provided ad libitum, with a 12-hour light/dark cycle.
Treatment in groups 2-6 was initiated one day prior to bleomycin administration and continued though to the study end on day 21. On day -1, animals were dosed via oral gavage with vehicle control (0.5% methylcellulose; group 1 and group 2), pioglitazone at 25 mg/kg/dose (group 3), pamapimod at 100 mg/kg/dose (group 4), pioglitazone at 25 mg/kg/dose and pamapimod at 100 mg/kg/dose (group 5), pirfenidone at 100mg/kg/dose (group 6) and continued for 21 days. Pioglitazone and pamapimod were dosed once daily (QD) and pirfenidone was dosed twice daily (BID). On day 0, all mice in groups 2-6 received a single instillation of bleomycin to induce pulmonary fibrosis. Animals in group 1 (dosed with vehicle from days-1 to 21) were not instilled with bleomycin, but instead received a single dose of saline, and were considered sham negative control mice. Final drug treatments were administered 2-4 hours prior to study termination on day 21.
Body weights, absolute lung weights, and lung weights normalized to body weights were measured for all mice on day 21 after bleomycin instillation, and were compared to bleomycin-instilled vehicle treated control mice. The post-caval lobes from the right lung were collected and snap frozen. The remaining lungs were fixed in 10% NBF and underwent histopathology analysis and evaluated for eseverity of fibrosis using a modified Ashcroft score.
Vehicle (0.5% methylcellulose) and compounds were prepared weekly and stored at room temperature in the dark. All mice were dosed starting on day-1 until study termination on day 21 with a volume of 200 μl of vehicle or test compounds QD by oral gavage or 100 μl of pirfenidone BID by oral gavage. For groups receiving both pirfenidone and test compounds, pirfenidone was dosed 100 μl BID and test compounds were delivered in a total volume of 100 μl QD. […]
The lung samples were processed and embedded with all lobes from each mouse in one paraffin block. […] A modified Ashcroft score (Hubner et al., 2008) was recorded for each field. The fibrotic index was calculated as the sum of the modified Ashcroft field scores divided by the number of fields examined. […]
Endpoint data on day 21 is shown as the average Ashcroft score per experimental group, with standard error of the mean (SEM). Statistical differences (defined as p<0.05) between groups were analyzed using t-tests in Prism version 7.0 software (GraphPad, La Jolla, Calif.). […]

[3] = system: cytokines and chemokines of the interleukin, TNF, C-C and C-X-C motif families; conditions: for adjusted significance (p) value, C-C Motif Chemokine Ligand 2 (Ccl2) / adjusted significance (p) value, C-C Motif Chemokine Ligand 3 (Ccl3) / adjusted significance (p) value, C-C Motif Chemokine Ligand 4 (Ccl4) / adjusted significance (p) value, C-C Motif Chemokine Ligand 7 (Ccl7) / adjusted significance (p) value, C-C Motif Chemokine Ligand 8 (Ccl8) / adjusted significance (p) value, C-C Motif Chemokine Ligand 12 (Ccl12) / adjusted significance (p) value, C-C Motif Chemokine Ligand 24 (Ccl24) / adjusted significance (p) value, C-X-C Motif Chemokine Ligand 3 (Cxcl3) / adjusted significance (p) value, C-X-C Motif Chemokine Ligand 5 (Cxcl5) / adjusted significance (p) value, C-X-C Motif Chemokine Ligand 10 (Cxcl10) / adjusted significance (p) value, Interleukin 6 (IL6) / adjusted significance (p) value, Interleukin 11 (IL11) / adjusted significance (p) value, Interleukin 12B (IL12b) / adjusted significance (p) value, Interleukin 18 Receptor 1 (IL18r1) / adjusted significance (p) value, TNF Receptor Superfamily Member 10b (Tnfrsf10b) / adjusted significance (p) value, TNF Receptor Superfamily Member 11b (Tnfrsf11b) / adjusted significance (p) value, TNF Superfamily Member 9 (Tnfsf9) / adjusted significance (p) value, TNF Superfamily Member 18 (Tnfsf18) / adjusted significance (p) value, Interleukin 36 Gamma (IL1f9) / adjusted significance (p) value, TNF Superfamily Member 15 (Tnfsf15): lung expression vs bleomycin alone group; for adjusted significance (p) value, C-C Motif Chemokine Ligand 2 (Ccl2) / adjusted significance (p) value, C-C Motif Chemokine Ligand 3 (Ccl3) / adjusted significance (p) value, C-C Motif Chemokine Ligand 4 (Ccl4) / adjusted significance (p) value, C-C Motif Chemokine Ligand 7 (Ccl7) / adjusted significance (p) value, C-C Motif Chemokine Ligand 8 (Ccl8) / adjusted significance (p) value, C-C Motif Chemokine Ligand 12 (Ccl12) / adjusted significance (p) value, C-C Motif Chemokine Ligand 24 (Ccl24) / adjusted significance (p) value, C-X-C Motif Chemokine Ligand 3 (Cxcl3) / adjusted significance (p) value, C-X-C Motif Chemokine Ligand 5 (Cxcl5) / adjusted significance (p) value, C-X-C Motif Chemokine Ligand 10 (Cxcl10) / adjusted significance (p) value, Interleukin 6 (IL6) / adjusted significance (p) value, Interleukin 11 (IL11) / adjusted significance (p) value, Interleukin 12B (IL12b) / adjusted significance (p) value, Interleukin 18 Receptor 1 (IL18r1) / adjusted significance (p) value, TNF Receptor Superfamily Member 10b (Tnfrsf10b) / adjusted significance (p) value, TNF Receptor Superfamily Member 11b (Tnfrsf11b) / adjusted significance (p) value, TNF Superfamily Member 9 (Tnfsf9) / adjusted significance (p) value, TNF Superfamily Member 18 (Tnfsf18): Direction: downregulated; for adjusted significance (p) value, Interleukin 36 Gamma (IL1f9) / adjusted significance (p) value, TNF Superfamily Member 15 (Tnfsf15): Direction: upregulated; for regulation of expression of members of the interleukin/interleukin receptor, TNF/TNF receptor, C-C and C-X-C motif chemokine families: lung, vs bleomycin alone disease group, significant = adjusted p value <0.10
Protocol: Global gene expression changes were determined by Illumina Next Generation RNA sequencing in lung samples from the animal study described in Example 1. RNA was extracted from the post caval lobe that had been snap frozen at the termination of the study. For this analysis, 8 samples from each of treatment groups 1-6 (total 48 samples) were analysed. Briefly, total RNA was extracted for next generation sequencing using standard methods, then Illumina TruSeq RNA libraries including poly(A) enrichment were prepared. Sequencing was performed on an Illumina NextSeq 500, v2, high output, 1×75 bp reads with 30 Mio packages. Demultiplexing and trimming of Illumina adaptor residuals was performed on the raw data. Mapping of data reads was made using the reference mouse genome mm10. For bioinformatics analysis, the average expression level and standard deviations were determined for each gene for the 8 replicates per treatment group. Pairwise comparisons between groups were then performed to identify differentially expressed genes. Absolute p-values and adjusted p-values, to correct for multiplicity of testing, were calculated for each pairwise analysis.

Row | SMILES | reduction of the rate of decline in lung function [1] | adverse events / side effects [1] | lung weights normalized to body weights [2] | fibrosis, group mean fibrotic index (modified Ashcroft score) [2] | adjusted significance (p) value, C-C Motif Chemokine Ligand 2 (Ccl2) [3] | adjusted significance (p) value, C-C Motif Chemokine Ligand 3 (Ccl3) [3] | adjusted significance (p) value, C-C Motif Chemokine Ligand 4 (Ccl4) [3] | adjusted significance (p) value, C-C Motif Chemokine Ligand 7 (Ccl7) [3] | adjusted significance (p) value, C-C Motif Chemokine Ligand 8 (Ccl8) [3] | adjusted significance (p) value, C-C Motif Chemokine Ligand 12 (Ccl12) [3] | adjusted significance (p) value, C-C Motif Chemokine Ligand 24 (Ccl24) [3] | adjusted significance (p) value, C-X-C Motif Chemokine Ligand 3 (Cxcl3) [3] | adjusted significance (p) value, C-X-C Motif Chemokine Ligand 5 (Cxcl5) [3] | adjusted significance (p) value, C-X-C Motif Chemokine Ligand 10 (Cxcl10) [3] | adjusted significance (p) value, Interleukin 6 (IL6) [3] | adjusted significance (p) value, Interleukin 11 (IL11) [3] | adjusted significance (p) value, Interleukin 12B (IL12b) [3] | adjusted significance (p) value, Interleukin 18 Receptor 1 (IL18r1) [3] | adjusted significance (p) value, TNF Receptor Superfamily Member 10b (Tnfrsf10b) [3] | adjusted significance (p) value, TNF Receptor Superfamily Member 11b (Tnfrsf11b) [3] | also measured
1 | Cc1ccc(=O)n(-c2ccccc2)c1 [pirfenidone, Pirfenidone] | approximately 50% | significant side effects | – | – | – | – | – | – | – | – | – | – | – | – | – | – | – | – | – | – | –
2 | Cn1c(=O)c(Oc2ccc(F)cc2F)cc2cnc(NC(CCO)CCO)nc21 [Pamapimod, 6-(2,4-Difluorophenoxy)-2-[3-hydroxy-1-(2-hydroxyethyl)-propylamino]-8-methyl-8H-pyrido[2,3-d]pyrimidin-7-one] | – | – | Substantially lower normalized lung weights | Substantially less fibrosis | NS (NS = adjusted p value > 0.10) | NS (NS = adjusted p value > 0.10) | 0.042 | NS (NS = adjusted p value > 0.10) | NS (NS = adjusted p value > 0.10) | NS (NS = adjusted p value > 0.10) | 0.032 | NS (NS = adjusted p value > 0.10) | NS (NS = adjusted p value > 0.10) | NS (NS = adjusted p value > 0.10) | NS (NS = adjusted p value > 0.10) | NS (NS = adjusted p value > 0.10) | 0.023 | NS (NS = adjusted p value > 0.10) | NS (NS = adjusted p value > 0.10) | NS (NS = adjusted p value > 0.10) | adjusted significance (p) value, TNF Superfamily Member 9 (Tnfsf9) [3]: NS (NS = adjusted p value > 0.10); adjusted significance (p) value, TNF Superfamily Member 18 (Tnfsf18) [3]: NS (NS = adjusted p value > 0.10); adjusted significance (p) value, Interleukin 36 Gamma (IL1f9) [3]: NS (NS = adjusted p value > 0.10); adjusted significance (p) value, TNF Superfamily Member 15 (Tnfsf15) [3]: 0.0079; regulation of expression of members of the interleukin/interleukin receptor, TNF/TNF receptor, C-C and C-X-C motif chemokine families [3]: Neither pioglitazone or pamapimod single treatments significantly regulated expression
3 | CCc1ccc(CCOc2ccc(CC3SC(=O)NC3=O)cc2)nc1 (centres unmarked) [Pioglitazone] | – | – | Substantially lower normalized lung weights | Substantially less fibrosis | NS (NS = adjusted p value > 0.10) | NS (NS = adjusted p value > 0.10) | NS (NS = adjusted p value > 0.10) | NS (NS = adjusted p value > 0.10) | NS (NS = adjusted p value > 0.10) | NS (NS = adjusted p value > 0.10) | NS (NS = adjusted p value > 0.10) | NS (NS = adjusted p value > 0.10) | NS (NS = adjusted p value > 0.10) | NS (NS = adjusted p value > 0.10) | NS (NS = adjusted p value > 0.10) | NS (NS = adjusted p value > 0.10) | NS (NS = adjusted p value > 0.10) | NS (NS = adjusted p value > 0.10) | NS (NS = adjusted p value > 0.10) | NS (NS = adjusted p value > 0.10) | adjusted significance (p) value, TNF Superfamily Member 9 (Tnfsf9) [3]: NS (NS = adjusted p value > 0.10); adjusted significance (p) value, TNF Superfamily Member 18 (Tnfsf18) [3]: NS (NS = adjusted p value > 0.10); adjusted significance (p) value, Interleukin 36 Gamma (IL1f9) [3]: NS (NS = adjusted p value > 0.10); adjusted significance (p) value, TNF Superfamily Member 15 (Tnfsf15) [3]: NS (NS = adjusted p value > 0.10); regulation of expression of members of the interleukin/interleukin receptor, TNF/TNF receptor, C-C and C-X-C motif chemokine families [3]: Neither pioglitazone or pamapimod single treatments significantly regulated expression
4 | COC(=O)c1ccc2c(c1)NC(=O)/C2=C(\Nc1ccc(N(C)C(=O)CN2CCN(C)CC2)cc1)c1ccccc1 [nintedanib, Nintedanib] | approximately 50% | significant systemic adverse events | – | – | – | – | – | – | – | – | – | – | – | – | – | – | – | – | – | – | –
